Reference: patent publication US20250054624A1, “METHODS AND SYSTEMS FOR DIGITAL PATHOLOGY ASSESSMENT OF CANCER VIA DEEP LEARNING” (Artera Inc., priority 2023, published 2025)
Entries after “also recorded” stand apart in the source; their conditions may differ. Where two headings read alike, the source gives them in different places.

Experiments:
[1] = tested on: nonmetastatic castration-resistant prostate cancer (nmCRPC); conditions: cited from earlier work
[2] = tested on: nonmetastatic castration-resistant prostate cancer (nmCRPC); experiment: SPARTAN phase III randomized placebo-controlled trial; outcomes by treatment group and MMAI risk group; type: in vivo, human; conditions: for PFS2 hazard ratio (HR) for apalutamide compared to placebo: second progression-free survival; for MFS HR, variable Treatment, Cox regression multivariable analysis / OS HR, variable Treatment, Cox regression multivariable analysis / PFS2 HR, variable Treatment, Cox regression multivariable analysis: all patients
Excerpt: The addition of apalutamide (APA) to androgen deprivation therapy (ADT) improved metastasis-free survival (MFS) and second progression-free survival (PFS2) among patients with nonmetastatic castration-resistant prostate cancer (nmCRPC). A digital histopathology-based multimodal AI (MMAI) algorithm as described herein was trained to evaluate whether MMAI could define risk of progression among nmCRPC patients treated with APA or placebo in the SPARTAN trial.
Patients enrolled in the SPARTAN trial with available H&E-stained biopsy slides from their primary diagnosis were included. H&E slides were digitized. Baseline clinical parameters to generate MMAI scores were Gleason score, age, T stage, and PSA. MMAI scores for distant metastasis (DM) were generated, ranging from 0 to 1. Patients were further categorized into MMAI non-high-risk and high-risk groups using a score cutoff. Kaplan Meier estimates were calculated for PFS2 and MFS; comparisons were performed using log-rank test and Cox proportional-hazards regression for treatment arms and MMAI risk groups. […] was used to evaluate the interaction between treatment arms and risk groups.
SPARTAN (NCT01946204) was an international, multicenter, randomized, double-blinded, placebo-controlled, phase III clinical trial that evaluated the efficacy of apalutamide in improving MFS in men with nmCRPC. […] These patients were considered at high risk for the development of metastases, as indicated by a PSA doubling time of 10 months or less during continuous ADT.
Participants were randomly assigned 2:1 to receive ongoing ADT with either apalutamide (240 mg daily) or a matched placebo. A primary endpoint of the study was MFS, defined as the duration from randomization to the first detection of distant metastasis on conventional imaging (as determined on central review by independent radiologists blinded to patient identifiers and treatment) or death from any cause, whichever occurred first. Secondary endpoints included second progression-free survival (PFS2), defined as the time from randomization to progression on first subsequent therapy, and overall survival (OS), defined as the time from randomization to death.
MMAI scores were computed for each subject within the analysis cohort using whole slide images digitized at 20× resolution from H&E-stained prostate primary slides obtained at the time of diagnosis. These scores, ranging from 0 to 1, represent a continuum of increasing probabilities for clinical events such as DM and PCSM. Subjects' MMAI scores for risk of DM categorized patients into MMAI risk groups (low, intermediate and high) using predefined clinical thresholds established for patients with localized prostate cancer based upon clinician input. For the purpose of this analysis, patients were categorized as either MMAI high risk or MMAI non-high risk (MMAI score with >10% estimated 10-year DM rates defined high-risk), with the latter group combining the low and intermediate risk categories for comparison.
Summary statistics of baseline characteristics for the analysis cohort, treatment subgroups and the overall clinical trial cohort were reported to evaluate comparability. Kaplan-Meier estimates were calculated for MFS, PFS2, and OS for analysis by treatment group and MMAI risk groups. Comparisons were performed using log-rank test and Cox proportional hazards regression models for treatment arms, MMAI risk scores, and MMAI risk group. The reporting unit for continuous MMAI scores in the Cox models is standard deviation (SD), meaning that each 1-unit increase corresponds to 1 SD increase in MMAI score. The interaction between treatment arm and MMAI risk scores was evaluated using a Cox proportional hazards model. Treatment effects within each MMAI risk subgroup were also assessed to measure the relative treatment effect between arms. […]

[3] = overall SPARTAN study, in words
[4] = all patients of analysis cohort
[5] = model with MMAI risk group (high/non-high) and MMAI risk group:Treatment interaction
[6] = model with continuous MMAI risk score and MMAI risk score:Treatment interaction

CNC(=O)c1ccc(N2C(=S)N(c3cnc(C#N)c(C(F)(F)F)c3)C(=O)C23CCC3)cc1F [apalutamide]
Median metastasis-free survival (95% CI), month ([1]; Overall SPARTAN Trial, N = 806): 40.5 month
Median overall survival (95% CI), month ([1]; Overall SPARTAN Trial, N = 806): 73.9 month
metastasis-free survival (MFS), effect of adding apalutamide to ADT [1, 3]: significantly improved
second progression-free survival (PFS2), effect of adding apalutamide to ADT [1, 3]: significantly improved
time to symptomatic progression, effect of adding apalutamide to ADT [1, 3]: significantly improved
overall survival (OS), effect of adding apalutamide to ADT compared to placebo ([1]; overall SPARTAN study, in words, median follow up of 52 months): significantly improved; also recorded: significant extension
Median overall survival (95% CI), month ([2]; MMAI Biomarker Cohort, N = 311): 65.1 month
MFS hazard ratio (HR) for apalutamide compared to placebo ([2]; MMAI high risk group, metastasis-free survival, with ongoing ADT): 0.19
OS hazard ratio (HR) for apalutamide compared to placebo ([2]; MMAI high risk group, overall survival): 0.6
PFS2 hazard ratio (HR) for apalutamide compared to placebo ([2]; MMAI high risk group): 0.47
PFS2 hazard ratio (HR) for apalutamide compared to placebo ([2]; MMAI high risk group, listed as APA): 0.76
MFS HR, variable Treatment, Cox regression univariate analysis [2, 4]: 0.28
PFS2 HR, variable Treatment, Cox regression univariate analysis [2, 4]: 0.55
OS HR, variable Treatment, Cox regression univariate analysis ([2]; all patients of analysis cohort, listed as Treatment): 0.7
MFS HR, variable Treatment, Cox regression multivariable analysis [2, 5]: 0.61
OS HR, variable Treatment, Cox regression multivariable analysis [2, 5]: 0.97
PFS2 HR, variable Treatment, Cox regression multivariable analysis [2, 5]: 0.74
MFS HR, variable Treatment, Cox regression multivariable analysis [2, 6]: 1.72
OS HR, variable Treatment, Cox regression multivariable analysis [2, 6]: 1.98
PFS2 HR, variable Treatment, Cox regression multivariable analysis [2, 6]: 2.28
